The values that follow come from PMC9917735, “Optimization of the Hemolysis Assay for the Assessment of Cytotoxicity” (International Journal of Molecular Sciences, 2023).

Where two headings read alike, the source gives them in different places. No end group written: not given here.

The test system of one data set is rabbit whole blood. The following applies: cf. Tables S3 and S4; 100 μM. The source says: (§1) Cytotoxicity studies are important during characterization of novel compounds or materials intended for interactions within human biological systems in vivo. Evaluation of the extent to which the compound induces disruption of the membrane of erythrocytes (red blood cells), thereby causing release of cellular content, often constitutes an initial step in such cytotoxicity assessments. The assay used in this context is generally referred to as the hemolysis assay, which has the advantages of being cheap, accessible, and simple to perform. Blood is drawn from a human or an animal, and next, the washed erythrocytes are incubated together with the compound or material under investigation. If the compound causes hemolysis, hemoglobin (along with other cellular constituents) will be released into the supernatant.
(§2) Blood from mice, rats, and rabbits was provided by the Department of Comparative Medicine at Oslo University Hospital (Marianne Aannestad). For mice and rats, the blood was collected from the heart by using 25 G and 21 G needles, respectively, whereas for rabbits, the blood was collected by free bleed through the ear using a yellow neoflon (24 G). All animals were wild type and anesthetized prior to the procedure.
(§3) All blood was collected in Lithium Heparin tubes 4 mL (Greiner Bio-One, Kremsmünster, Austria) or Coagulation sodium citrate 3.2% tubes 3 mL (Greiner Bio-One).
(§4) AMP 2 contained an N-terminal hexanoic acid moiety, whereas all peptides contained amidated C-termini. These three peptides were synthesized by Genscript Inc. (Piscataway, NJ, USA), and stock solutions of 1 mg/mL were made from the purchased powders. […] All peptides were diluted to yield a 100 μM final concentration in the hemolysis assays.
(§5) Triton X-100 (T8787) and Tween-20 (P2287) detergents were purchased from Sigma Aldrich and diluted to obtain 10% stock solutions by weighing (w/v). A sodium Dodecyl Sulfate (SDS) 10% solution was purchased from Invitrogen (Waltham, MA, USA, 15553027). All subsequent dilutions annotated in figures were made from these stocks.
(§6) As soon as possible after phlebotomy, the blood samples were centrifuged at 1700× g for 5 min. The supernatant was removed by aspiration and 2 mL of PBS pH 7 was added. The washing step was repeated three times or until the supernatant was clear. After final aspiration, the remaining pellet was diluted 1:100 in PBS pH 7 to obtain a 1% erythrocyte suspension (or 1:100, 1:50, and 1:20 for assays testing the effect of erythrocyte concentration). For experiments using whole blood, the washing steps were not performed, but downstream experimentation was identical. For experiments performed with 96-well plates, 50 μL of test compound, water, or detergent were mixed with 50 μL of blood sample (1% erythrocyte suspension or whole blood). For experiments using larger volumes, 250 μL of test compound, water, or detergent were mixed with 250 μL blood sample in an Eppendorf tube. Samples were subsequently incubated at 37 °C for 60 min (or 15, 30, 60, 90, or 120 min for assays evaluating the effect of incubation time). After incubation, the plates/tubes were centrifuged at 1700× g for 5 min, and then 50 μL of the supernatants were transferred to transparent, flat-bottom 96-well plates (Anicrin, A013418). Finally, absorption was measured at 405, 530, and 570 nm in a Victor Nivo Multimode microplate reader (Perkin Elmer, Waltham, MA, USA).

The subject of a further data set is rat erythrocytes. The following applies: Table S4: washed rat erythrocytes, OD 405 nm, AMPs 100 μM, 1 hour 37 °C, pos. 10% Triton X-100, neg. PBS; 3 x 2 replicates.
Excerpt: as §1, §2, §3, §4, §5, §6

For a further data set, the system named is rabbit erythrocytes. The following applies: Table S4: washed rabbit erythrocytes, OD 405 nm, AMPs 100 μM, 1 hour 37 °C, pos. 10% Triton X-100, neg. PBS; 3 x 2 replicates.
Excerpt: as §1, §2, §3, §4, §5, §6

A further data set deals with mouse erythrocytes. The note with it: Table 1, 1% erythrocytes, 100 µM.
Excerpt: as §1, §2, §3, §4, §5, §6

Data set [1] deals with washed human erythrocytes. Description: Hemolysis assay, washed human erythrocytes.
For a further data set, the system named is human whole blood. The note with it: human whole blood, 60 min 37 °C; for Calculated hemolysis ratio: peptides 100 μM, neg. PBS, 3 x 2 replicates.
Data set [2] concerns washed human erythrocytes. Description: Flow cytometry of treated erythrocytes with live/dead amine-reactive stain. The class given is cell-based. The following applies: washed human erythrocytes treated 60 minutes, AMPs 100 μM, amine-reactive dye 488, flow cytometry 533/30 nm. The protocol: Briefly, a 1% washed erythrocyte solution was diluted to ~10^5 cells/mL and 0.4% Trypan blue (1:1 ratio) was added before 10 μL of the stained cell suspension was added to the Countess cell counting chamber slide. After a 30 s incubation, the slide was inserted into the instrument for automatic cell counting.
The Countess II automated cell counter (see above) was used to adjust the negative control sample to ~10^5 cells/mL and to subsequently dilute all samples by the same factor. Then, 0.5 μL of live/dead amine-reactive dye 488 (Fisher Scientific, Waltham, MA, USA) was added to 0.5 mL cell suspension and incubated for 30 min protected from light. Subsequently, the samples were washed twice with PBS pH 7 containing 1% bovine serum albumin (BSA), and finally resuspended in PBS pH 7 with 1% BSA. Cells were next counted, and the fluorescence measured using the 533/30 nm filter in an Accuri C6 flow cytometer (BD Biosciences, Franklin Lakes, NJ, USA).
Background: Flow cytometry measures light scatter and fluorescence of single cells or particles in a stream.

Setting [3] is: human individual # 1, 1% erythrocytes, AMPs 100 µM, 60 min 37 °C, 405 nm, pos. 10% Triton X, neg. PBS, 3 x 2 replicates.
The mark [4] stands for this setting: human individual # 2, 1% erythrocytes, AMPs 100 µM, 60 min 37 °C, 405 nm, pos. 10% Triton X, neg. PBS, 3 x 2 replicates.
Where [5] appears, read: human individual # 3, 1% erythrocytes, AMPs 100 µM, 60 min 37 °C, 405 nm, pos. 10% Triton X, neg. PBS, 3 x 2 replicates.
Setting [6] is: human individual # 4, 1% erythrocytes, AMPs 100 µM, 60 min 37 °C, 405 nm, pos. 10% Triton X, neg. PBS, 3 x 2 replicates.
The mark [7] stands for this setting: human individual # 5, 1% erythrocytes, AMPs 100 µM, 60 min 37 °C, 405 nm, pos. 10% Triton X, neg. PBS, 3 x 2 replicates.
Where [8] appears, read: human individual # 6, 1% erythrocytes, AMPs 100 µM, 60 min 37 °C, 405 nm, pos. 10% Triton X, neg. PBS, 3 x 2 replicates.
The mark [9] stands for this setting: human individual # 7, 1% erythrocytes, AMPs 100 µM, 60 min 37 °C, 405 nm, pos. 10% Triton X, neg. PBS, 3 x 2 replicates.
Setting [10] is: human individual # 8, 1% erythrocytes, AMPs 100 µM, 60 min 37 °C, 405 nm, pos. 10% Triton X, neg. PBS, 3 x 2 replicates.
[11] abbreviates: human individual # 9, 1% erythrocytes, AMPs 100 µM, 60 min 37 °C, 405 nm, pos. 10% Triton X, neg. PBS, 3 x 2 replicates.
[12] abbreviates: human individual # 10, 1% erythrocytes, AMPs 100 µM, 60 min 37 °C, 405 nm, pos. 10% Triton X, neg. PBS, 3 x 2 replicates.
Where [13] appears, read: 10% detergent, highest absorbance.

With “MNLVDRAILIRKRRRAALQLRDKVLRYLK-NH2 [AMP 1]”, the “Fold decrease of hemolytic effect in rabbit whole blood vs washed rabbit erythrocytes” value with rabbit whole blood was “slightly increased hemolytic effect”. Moreover, the Hemolysis ratio in the data set on rat erythrocytes was 12.9 +/- 1.7%; in the data set on rabbit erythrocytes, 7.1 +/- 1.1%. The “HR in mouse sample compared to rabbit sample” value in the data set with mouse erythrocytes is listed as “over four times higher”. Also, the “Fold difference in HR at 120 min incubation relative to the shortest incubation times” value in data set [1] (1% washed human erythrocytes, 405 nm, Table 4) amounted to 1.65 fold. The Calculated hemolysis ratio in data set [1] (setting [3]) was 21.9 ± 4%; in data set [1] (setting [4]), 23 ± 2.8%; in data set [1] (setting [5]), 23.7 ± 2.1%; in data set [1] (setting [6]), 21.3 ± 3%; in data set [1] (setting [7]), 19.7 ± 3.7%; in data set [1] (setting [8]) it was 19.6 ± 4.7%. Moreover, the Calculated hemolysis ratio is listed as 18.8 ± 4% in data set [1] (setting [9]), 21.7 ± 8.6% in data set [1] (setting [10]), 22.9 ± 6.8% in data set [1] (setting [11]) and 25.1 ± 13% in data set [1] (setting [12]). The “Observed hemolytic properties (qualitative)” value in data set [1] (reason for choice of the AMPs) is recorded as “medium”. Moreover, the “Minimum inhibitory concentration (E. coli)” value in the data set on E. coli came to 2 µM.

Take Tween-20 [reference compound]: in the data set with human whole blood (melittin 100 μM), the “Blood clotting in whole blood” value is “tendency of the blood to clot at higher Tween concentrations”.

On to `CCCCCCCCCCCCOS(=O)(=O)[O-].[Na+]` [SDS, Sodium Dodecyl Sulfate, reference compound], for which, in the data set with human whole blood (setting [13]), the “Absorbance of free hemoglobin at 530 nm” value came to 2.2 and the “Absorbance of free hemoglobin at 570 nm” value came to 1.7. Moreover, the “Peak OD of free hemoglobin” value in data set [1] (at 0.02% detergent, human erythrocytes, decreases at higher concentrations (Figure S3)) is 0,8.

For the compound `O` [dH2O, distilled water], in data set [2], the “Fluorescence intensity per cell of remaining intact cells (live/dead stain)” value is on record as “low fluorescence”. For the same compound, the Calculated hemolysis ratio with human whole blood (OD 405 nm (signal saturated), pos. 10% SDS) is 98.2 ± 0.4%; in the data set on human whole blood (OD 530 nm, pos. 10% SDS) it was 38.4 ± 8.5%; with human whole blood (OD 570 nm, pos. 10% Triton X-100 (table title; text says 10% SDS)) it was 62.8 ± 1.4%; in data set [1] (1% washed human erythrocytes, OD 530 nm, peptides 100 μM, 60 min 37 °C, pos. 10% Triton X-100, neg. PBS, 3 x 2 replicates), 67.6 ± 8.7%; in data set [1] (Table 2: pooled blood from all 10 individuals, 1% erythrocytes, AMPs 100 µM, 60 min 37 °C, 405 nm, pos. 10% Triton X, neg. PBS, 3 x 2 replicates) it was 32.6 ± 7.3%; in data set [1] (Table 4: incubation 60 min, 37 °C, 1% human erythrocytes, AMPs 100 µM, 405 nm, pos. 10% Triton X-100, neg. PBS, 3 biological x 2 technical replicates) it was 37.1 ±14.2%. The Calculated hemolysis ratio in data set [1] (Table 6: 1% washed human erythrocytes, OD 405 nm, peptides 100 μM, 60 min 37 °C, pos. 10% Triton X-100, neg. PBS, 3 x 2 replicates) is listed as 73.9 ± 7.5%; in data set [1] (setting [3]), 38 ± 12.3%; in data set [1] (setting [4]), 57.7 ± 12.2%; in data set [1] (setting [5]), 50.8 ± 8.8%; in data set [1] (setting [6]), 47.2 ± 5.6%; in data set [1] (setting [7]) it was 38.8 ± 12.1%. Also, the Calculated hemolysis ratio in data set [1] (setting [8]) is 36.2 ± 10.8%; in data set [1] (setting [9]) it was 49.6 ± 15.2%; in data set [1] (setting [10]), 49.4 ± 16.9%; in data set [1] (setting [11]), 49.1 ± 22.5%; in data set [1] (setting [12]) it was 39.4 ± 10.7%; in data set [1] (incubated in polypropylene tubes, 1% washed human erythrocytes, peptides 100 μM, 60 min 37 °C, 405 nm, pos. 10% Triton X-100, neg. PBS, 3 x 2 replicates) it was 29.5 ± 6%. The Calculated hemolysis ratio is listed as 43.1 ± 18.6% in data set [1] (incubated in polystyrene tubes, 1% washed human erythrocytes, peptides 100 μM, 60 min 37 °C, 405 nm, pos. 10% Triton X-100, neg. PBS, 3 x 2 replicates); 32.8 ± 12.1% in data set [1] (incubation 15 min, 37 °C, 1% human erythrocytes, AMPs 100 µM, 405 nm, pos. 10% Triton X-100, neg. PBS, 3 biological x 2 technical replicates); 34.8 ± 12.7% in data set [1] (incubation 30 min, 37 °C, 1% human erythrocytes, AMPs 100 µM, 405 nm, pos. 10% Triton X-100, neg. PBS, 3 biological x 2 technical replicates); 40.1 ±13.9% in data set [1] (incubation 90 min, 37 °C, 1% human erythrocytes, AMPs 100 µM, 405 nm, pos. 10% Triton X-100, neg. PBS, 3 biological x 2 technical replicates); 47 ± 13.6% in data set [1] (incubation 120 min, 37 °C, 1% human erythrocytes, AMPs 100 µM, 405 nm, pos. 10% Triton X-100, neg. PBS, 3 biological x 2 technical replicates); 43.1 ± 18.6% in data set [1] (total incubation volume 100 μL, 1% washed human erythrocytes, peptides 100 μM, 60 min 37 °C, 405 nm, pos. 10% Triton X-100, neg. PBS, 3 x 2 replicates). In addition, the Calculated hemolysis ratio in data set [1] (total incubation volume 500 μL, 1% washed human erythrocytes, peptides 100 μM, 60 min 37 °C, 405 nm, pos. 10% Triton X-100, neg. PBS, 3 x 2 replicates) was 31.4 ± 10.7%. Further, the “Calculated Hemolysis (%)” value is reported as 27.1 ± 2.7% in data set [1] (2% pooled human erythrocytes, AMPs 100 µM, 60 min 37 °C, 405 nm, pos. 10% Triton X-100, neg. PBS, 3 x 2 replicates); 22.7 ± 9% in data set [1] (5% pooled human erythrocytes, AMPs 100 µM, 60 min 37 °C, 405 nm, pos. 10% Triton X-100, neg. PBS, 3 x 2 replicates); 32.6 ± 7.3% in data set [1] (Table 3: 1% pooled human erythrocytes, AMPs 100 µM, 60 min 37 °C, 405 nm, pos. 10% Triton X-100, neg. PBS, 3 x 2 replicates).
